Laboratory results taken from US20260272900A1 (Bayer Aktiengesellschaft, priority 2024, published 2026).

Tested on: patients with heart failure and left ventricular ejection fraction ≥40% (HFmrEF/HFpEF)
Type: in vivo
Details: bilirubin Tertile 1 ≤0.4 mg/dL; N = 957

CCOc1ncc(C)c2c1[C@H](c1ccc(C#N)cc1OC)C(C(N)=O)=C(C)N2 [finerenone, (4S)-4-(4-cyano-2-methoxyphenyl)-5-ethoxy-2,8-dimethyl-1,4-dihydro-1,6-naphthyridine-3-carboxamide]
Total worsening HF events, event rate: 12.4 per 100 PY
